Test results: patent US8558019B2, “Thiolated paclitaxels for reaction with gold nanoparticles as drug delivery agents” (Virginia Tech Intellectual Properties, Inc., priority 2007, dated 2013)

System: B16/F10 melanoma cells
Test: Efficacy study in tumor-burdened mice, tumor volume and mortality
Type: in vivo, C57BL/6 mice
Conditions: paclitaxel 40 mg/kg, formulations […], day 0, 2, 5 and 7
Experimental: The efficacy of the formulated nanodrugs was compared to that of unformulated paclitaxel for the treatment of tumor-burdened mice. For these studies C57BL/6 mice were implanted with B16/F10 melanoma cells. Once the cells formed tumors with an approximate volume of 500 mm^3 the mice (n=4/group/formulation) received an injection of either unformulated paclitaxel or one of the formulations (Formulations II, IV and XIII). Paclitaxel was given at a dose of 40 mg/kg, whereas the formulated drugs were administered at a dose of 2.5 mg/kg. The mice were treated on day 0, 2, 5 and 7 of the days and tumor responses were determined by measuring tumor volume during the course of the study

CC(=O)O[C@H]1C(=O)[C@@]2(C)[C@H]([C@H](OC(=O)c3ccccc3)[C@]3(O)C[C@H](OC(=O)[C@H](O)[C@@H](NC(=O)c4ccccc4)c4ccccc4)C(C)=C1C3(C)C)[C@]1(OC(C)=O)CO[C@@H]1C[C@@H]2O [unformulated paclitaxel, Paclitaxel]
mortality rate: 75%
